The record followed here is patent US20030149084A1, “Cytostatic agents” (priority 1998, published 2003).

The test system of this experiment is human histiocytic lymphoma cell line (U937). Kind of experiment: U937 cell proliferation assay (methyl-3H thymidine incorporation). The experiment is classed as cell-based. As to conditions: for % of Control methyl-^3H Thymidine Incorporation / activity at 6 µM: test compound 6 μM, 72 hours in culture, 3 hours pulse, control DMSO 0.08%, n=6; for activity at 6 µM: Homo sapiens, U-937, U937 cells. The protocol: The compounds of examples 1 to 10 were tested the following cell proliferation assay, to determine their respective capacities to inhibit proliferation.
A human histiocytic lymphoma cell line (U937) was seeded into 30 mm^2 tissue culture wells, in the appropriate culture medium supplemented with 10% fetal calf serum at a density of 250 cells/mm^2. Six hours later the test compounds were added in the same culture medium to the cells to give a final concentration of 6 μM. Control wells contained cells supplemented with the same culture medium containing the equivalent amount of drug vehicle, which in this case was DMSO at a final concentration of 0.08%. After 72 hours in culture the cells were pulsed for 3 hours with methyl-^3H Thymidine (20 μCi/ml) and then harvested onto filter mats and DNA associated radioactivity counted. Results are expressed as percentage of control methyl-^3H Thydimine incorporation (n=6±1 stdv).

For the compound `O=CN(O)CC(Cc1ccccc1)C(=O)N[C@@H](Cc1ccccc1)C(=O)OC1CCCC1` (single isomer, unassigned) [Example 1, diastereomer A, 2S-[2-benzyl-3-(formyl-hydroxy-amino)propionylamino]-3-phenyl-propionic acid cyclopentyl ester], the “% of Control methyl-^3H Thymidine Incorporation” value (U937 cells, 6 µM) was 0%.
For the compound `O=CN(O)CC(Cc1ccccc1)C(=O)N[C@@H](Cc1ccccc1)C(=O)OC1CCCC1` (single isomer, unassigned) [Example 1, diastereomer B, 2S-[2-benzyl-3-(formyl-hydroxy-amino)propionylamino]-3-phenyl-propionic acid cyclopentyl ester], the “% of Control methyl-^3H Thymidine Incorporation” value (U937 cells, 6 µM) is given as 73%.
`CC(C)C[C@@H](C(=O)N[C@@H](Cc1ccccc1)C(=O)OC1CCCC1)C(C)N(O)C=O` (single isomer, unassigned) [Example 2, diastereomer A] showed an activity at 6 µM of 21%.
As for `CC(C)C[C@@H](C(=O)N[C@@H](Cc1ccccc1)C(=O)OC1CCCC1)C(C)N(O)C=O` (single isomer, unassigned) [Example 2, diastereomer B], the “% of Control methyl-^3H Thymidine Incorporation” value (U937 cells, 6 µM) was determined as 17%.
In the case of `O=c1[nH]cc(F)c(=O)[nH]1` [5-fluorouracil, reference compound], where the note is “U937 cells, 6 μM, comparison compound”, the “activity in the U937 assay, % of that observed with the vehicle alone” value is on record as 50%.
Take `CCCC[C@H](CN(O)C=O)C(=O)N[C@H](C(=O)OC1CCCC1)C(C)(C)C` [Example 3, 2S-{2R-[(Formyl-hydroxy-amino)-methyl]-hexanoylamino}-3,3-dimethyl Butyric Acid Cyclopentyl Ester]: the activity at 6 µM came to 80%.
Same read-out and setting: next, `CCCC[C@H](CN(O)C=O)C(=O)N[C@@H](Cc1ccccc1)C(=O)OC1CCCC1` [Example 4, S-{2R-[(Formyl-hydroxy-amino)-methyl]-hexanoylamino}-3-phenyl-propionic Acid Cyclopentyl Ester]: 0%.
Regarding `CCCC[C@H](CN(O)C=O)C(=O)N[C@H](C(=O)OC1CCCC1)C(C)C` [Example 6, 2S-{2R-[(Formyl-hydroxy-amino)-methyl]-hexanoylamino}-3-methyl Butyric Acid Cyclo-Pentyl Ester], for the setting “U937 cells”, the “% of Control methyl-^3H Thymidine Incorporation” value came out at 0%.
`CCCC[C@H](CN(O)C=O)C(=O)N[C@@H](Cc1ccccc1)C(=O)OC` [Example 7]: the activity at 6 µM was 0%.
In turn, `CCCC[C@H](CN(O)C=O)C(=O)N[C@@H](Cc1ccccc1)C(=O)OCC` [Example 8, 2S-{2R-[(Formyl-hydroxy-amino)-methyl]-hexanoylamino)-3-phenyl-propionic Acid Ethyl Ester] returned an activity at 6 µM of 0%.
In turn, `CCCC[C@H](CN(O)C=O)C(=O)N[C@H](C(=O)OC(C)C)C(C)(C)C` [Example 9, 2S-{2R-[(Formyl-hydroxy-amino)-methyl]-hexanoylamino}-3,3-dimethyl Butyric Acid Iso-Propyl Ester] came in with an activity at 6 µM of 81%.
Regarding `CCCC[C@H](CN(O)C=O)C(=O)N[C@H](C(=O)OC1CCC1)C(C)(C)C` [Example 14, 2S-{2R-[(Formyl-hydroxy-amino)-methyl]-hexanoylamino}-3,3-dimethyl Butyric Acid Cyclobutyl Ester], the activity at 6 µM came out at 74%.
Compound `CCCC[C@H](CN(O)C=O)C(=O)N[C@H](C(=O)OC1CCCCC1)C(C)(C)C` [Example 15, 2S-{2R-[(Formyl-hydroxy-amino)-methyl]-hexanoylamino}-3,3-dimethyl Butyric Acid Cyclohexyl Ester] had an activity at 6 µM of 75%.
The compound `CCCC[C@H](CN(O)C=O)C(=O)N[C@H](C(=O)OCCOC)C(C)(C)C` [Example 16, 2S-{2R-[(Formyl-hydroxy-amino)-methyl]-hexanoylamino}-3,3-dimethyl Butyric Acid 2-methoxy-ethyl Ester] returned an activity at 6 µM of 89%.
`CCCC[C@H](CN(O)C=O)C(=O)N[C@H](C(=O)OCC1CCCC1)C(C)(C)C` [Example 18, 2S-{2R-[(Formyl-hydroxy-amino)-methyl]-hexanoylamino}-3,3-dimethyl Butyric Acid Cyclopentylmethyl Ester] returned an activity at 6 µM of 60%.
